The source made the active and inactive calls. How the calls were made is not given here.

In the data set the test system is CCRIS mutagenicity, Ames/micronucleus/aberration tests. Kind of data set: CCRIS mutagenicity studies.
[1] abbreviates: Test System: AMES SALMONELLA TYPHIMURIUM, Strain/Indicator: TA98, Metabolic Activation: NONE, Method: STANDARD PLATE.
The mark [2] stands for this setting: Test System: AMES SALMONELLA TYPHIMURIUM, Strain/Indicator: TA100, Metabolic Activation: NONE, Method: STANDARD PLATE.

As for `CC(=O)OC(C)=O`, the mutagenic call (Test System: AMES SALMONELLA TYPHIMURIUM, Strain/Indicator: TA98, Metabolic Activation: HAMSTER, LIVER, S-9, AROCLOR 1254, Method: STANDARD PLATE) was “inactive; negative”; the mutagenic call (Test System: AMES SALMONELLA TYPHIMURIUM, Strain/Indicator: TA98, Metabolic Activation: NONE, Method: PREINCUBATION) is “inactive; negative”; the mutagenic call under setting [1] is “inactive; negative”; the mutagenic call (Test System: AMES SALMONELLA TYPHIMURIUM, Strain/Indicator: TA98, Metabolic Activation: RAT, LIVER, S-9, AROCLOR 1254, Method: STANDARD PLATE) was “inactive; negative”; the mutagenic call (Test System: AMES SALMONELLA TYPHIMURIUM, Strain/Indicator: TA98, Metabolic Activation: RAT, LIVER, S-9, SODIUM PHENOBARBITAL AND 5,6-BENZOFLAVONE, Method: PREINCUBATION) was “inactive; negative”; the mutagenic call (Test System: AMES SALMONELLA TYPHIMURIUM, Strain/Indicator: TA100, Metabolic Activation: HAMSTER, LIVER, S-9, AROCLOR 1254, Method: STANDARD PLATE) was “inactive; negative”. Also, the mutagenic call is “inactive; negative” (Test System: AMES SALMONELLA TYPHIMURIUM, Strain/Indicator: TA100, Metabolic Activation: NONE, Method: PREINCUBATION); “inactive; negative” under setting [2]; “inactive; negative” (Test System: AMES SALMONELLA TYPHIMURIUM, Strain/Indicator: TA100, Metabolic Activation: RAT, LIVER, S-9, AROCLOR 1254, Method: STANDARD PLATE); “inactive; negative” (Test System: AMES SALMONELLA TYPHIMURIUM, Strain/Indicator: TA100, Metabolic Activation: RAT, LIVER, S-9, SODIUM PHENOBARBITAL AND 5,6-BENZOFLAVONE, Method: PREINCUBATION); “inactive; negative” (Test System: AMES SALMONELLA TYPHIMURIUM, Strain/Indicator: TA102, Metabolic Activation: NONE, Method: PREINCUBATION); “inactive; negative” (Test System: AMES SALMONELLA TYPHIMURIUM, Strain/Indicator: TA102, Metabolic Activation: RAT, LIVER, S-9, SODIUM PHENOBARBITAL AND 5,6-BENZOFLAVONE, Method: PREINCUBATION). In addition, the mutagenic call is, setting by setting: (Test System: AMES SALMONELLA TYPHIMURIUM, Strain/Indicator: TA104, Metabolic Activation: NONE, Method: PREINCUBATION) “inactive; negative”; (Test System: AMES SALMONELLA TYPHIMURIUM, Strain/Indicator: TA104, Metabolic Activation: RAT, LIVER, S-9, SODIUM PHENOBARBITAL AND 5,6-BENZOFLAVONE, Method: PREINCUBATION) “inactive; negative”; (Test System: AMES SALMONELLA TYPHIMURIUM, Strain/Indicator: TA1535, Metabolic Activation: HAMSTER, LIVER, S-9, AROCLOR 1254, Method: STANDARD PLATE) “inactive; negative”; (Test System: AMES SALMONELLA TYPHIMURIUM, Strain/Indicator: TA1535, Metabolic Activation: NONE, Method: PREINCUBATION) “inactive; negative”; (Test System: AMES SALMONELLA TYPHIMURIUM, Strain/Indicator: TA1535, Metabolic Activation: NONE, Method: STANDARD PLATE) “inactive; negative”; (Test System: AMES SALMONELLA TYPHIMURIUM, Strain/Indicator: TA1535, Metabolic Activation: RAT, LIVER, S-9, AROCLOR 1254, Method: STANDARD PLATE) “inactive; negative”. The mutagenic call (Test System: AMES SALMONELLA TYPHIMURIUM, Strain/Indicator: TA1535, Metabolic Activation: RAT, LIVER, S-9, SODIUM PHENOBARBITAL AND 5,6-BENZOFLAVONE, Method: PREINCUBATION) is “inactive; negative”; the mutagenic call (Test System: AMES SALMONELLA TYPHIMURIUM, Strain/Indicator: TA1537, Metabolic Activation: HAMSTER, LIVER, S-9, AROCLOR 1254, Method: STANDARD PLATE) is “inactive; negative”; the mutagenic call (Test System: AMES SALMONELLA TYPHIMURIUM, Strain/Indicator: TA1537, Metabolic Activation: NONE, Method: PREINCUBATION) was “inactive; negative”; the mutagenic call (Test System: AMES SALMONELLA TYPHIMURIUM, Strain/Indicator: TA1537, Metabolic Activation: NONE, Method: STANDARD PLATE) is “inactive; negative”; the mutagenic call (Test System: AMES SALMONELLA TYPHIMURIUM, Strain/Indicator: TA1537, Metabolic Activation: RAT, LIVER, S-9, AROCLOR 1254, Method: STANDARD PLATE) is “inactive; negative”; the mutagenic call (Test System: AMES SALMONELLA TYPHIMURIUM, Strain/Indicator: TA1537, Metabolic Activation: RAT, LIVER, S-9, SODIUM PHENOBARBITAL AND 5,6-BENZOFLAVONE, Method: PREINCUBATION) is “inactive; negative”. The mutagenic call was “inactive; negative” (Test System: AMES SALMONELLA TYPHIMURIUM, Strain/Indicator: TA1538, Metabolic Activation: HAMSTER, LIVER, S-9, AROCLOR 1254, Method: STANDARD PLATE); “inactive; negative” (Test System: AMES SALMONELLA TYPHIMURIUM, Strain/Indicator: TA1538, Metabolic Activation: NONE, Method: STANDARD PLATE); “inactive; negative” (Test System: AMES SALMONELLA TYPHIMURIUM, Strain/Indicator: TA1538, Metabolic Activation: RAT, LIVER, S-9, AROCLOR 1254, Method: STANDARD PLATE); “inactive; negative” (Test System: E. COLI, Strain/Indicator: WP2UVRA/PKM101, Metabolic Activation: NONE, Method: PREINCUBATION); “inactive; negative” (Test System: E. COLI, Strain/Indicator: WP2UVRA/PKM101, Metabolic Activation: RAT, LIVER, S-9, SODIUM PHENOBARBITAL AND 5,6-BENZOFLAVONE, Method: PREINCUBATION); “inactive; negative” (Test System: E. COLI, Strain/Indicator: WP2UVRA, Metabolic Activation: NONE, Method: PREINCUBATION). Also, the mutagenic call was “inactive; negative” (Test System: E. COLI, Strain/Indicator: WP2UVRA, Metabolic Activation: RAT, LIVER, S-9, SODIUM PHENOBARBITAL AND 5,6-BENZOFLAVONE, Method: PREINCUBATION); “inactive; negative. reevaluation of results: inconclusive” (Test System: MOUSE LYMPHOMA, Strain/Indicator: L5178Y (TK+/TK-), Metabolic Activation: NONE, Method: SUSPENSION/PLATE); “inactive; inconclusive (previous evaluation negative)” (Test System: Mouse lymphoma, Strain/Indicator: L5178Y (tk+/tk-), Metabolic Activation: Rat, Liver, S-9, Aroclor 1254, Method: Suspension/plate).
Regarding `CCCOc1ccccc1C(=O)NOC(C)=O`, the mutagenic call reads like this: under setting [2], “active; positive”; (Test System: AMES SALMONELLA TYPHIMURIUM, Strain/Indicator: TA100, Metabolic Activation: RAT, S-9, AROCLOR, Method: STANDARD PLATE) “active; positive”.
For the compound `CCCCCCCCCCCCCC(=O)O[C@@H]1[C@@H](C)[C@@]2(O)[C@@H](C=C(CO)C[C@]3(O)C(=O)C(C)=C[C@@H]23)[C@@H]2C(C)(C)[C@]12OC(C)=O`, the mutagenic call runs as follows: (End Point: IN VITRO CHROMOSOMAL ABERRATIONS, Test System: CHL/IU CELLS, Metabolic Activation: NONE) “inactive; negative”; (End Point: IN VITRO MICRONUCLEUS, Test System: CHL/IU CELLS, Metabolic Activation: NONE) “inactive; negative”.
For `O=[N+]([O-])c1cc2c3c(c1)CCc1cccc(c1-3)CC2`, the mutagenic call was “active; positive” (Test System: AMES SALMONELLA TYPHIMURIUM, Strain/Indicator: TA98(1,8-DNP6), Metabolic Activation: NONE, Method: STANDARD PLATE); “active; positive” (Test System: AMES SALMONELLA TYPHIMURIUM, Strain/Indicator: TA98(NR), Metabolic Activation: NONE, Method: STANDARD PLATE); “active; positive” under setting [1].
